According to US20230002346A1, “NEW COMPOUNDS AND METHODS” (BenevolentAl Bio Limited, priority 2019, published 2023):
In brackets after ≈: the same amount, converted by molar mass.

Experiments:
[1] = Brain to plasma (B:P) ratio in rat; format: in vivo, Sprague Dawley Rats; conditions: male, Sprague Dawley, po, p.o. 3.0 mg/kg, 30% HPBC in water; for Kp: timepoints averaged 0.5-4 h
Protocol: Male Sprague Dawley Rats 300-350 g (Charles River, UK) were group housed, n=3, under a 12 h light/dark cycle with food and water available ad libitum. At 17:00 on the day prior to dosing all food was removed. On the day of dosing animals were weighed, tail marked and dosed via oral gavage with compound at 3 mg/kg in a volume of 5 mL/kg. Animals were culled at 30 min, 1 h and 4 h post dose via intra-peritoneal administration of pentobarbital. Post mortem blood was withdrawn via cardiac puncture, and briefly stored in K2 EDTA blood tubes on ice before being spun at 14,000 g for 4 min at 4° C. Plasma was withdrawn into a 96 well plate, placed on dry ice and stored at −80° C. Brains were quickly dissected and placed on dry ice before storage at −80° C. Bioanalysis of plasma and brain samples is performed as detailed below. Methods were prepared with guidance from industry standard documents.^i,ii […] Calibration lines are prepared in control male Sprague-Dawley Rat plasma at known concentrations in the range of 1-10000 ng/mL by spiking 2.5 μL of calibration spiking solution into 25 μL control plasma. Experimental samples are thawed to RT and 25 μL aliquots are extracted alongside the calibration lines using protein precipitation (agitation for at least 5 min at RT with 400 μL of MeCN containing 25 ng/mL tolbutamide as an internal standard). Protein precipitates are separated from the extracted test compound by centrifugation at 4000 rpm for 5 min, 4° C. […] Samples are analysed by UPLC-MS/MS on either an API6500 QTrap or Waters 30 TQS mass spectrometer using previously optimised analytical MRM (multiple reaction monitoring) methods, specific to the test compound. The concentration of test compound in isolated samples is determined following analysis of the samples against the two replicates of the calibration line, injected before and after the sample set with an appropriate regression and weighting used. Only samples within 20% of the expected test concentration are included in the calibration line and any samples that fall outside of the limits of the calibration line will be deemed to be less than or above the limit of quantification (LLoQ/ALoQ). […] Calibration lines are prepared in control male Sprague-Dawley Rat brain homogenate at known concentrations in the range of 3-30000 ng/g by spiking 2.5 μL of calibration spiking solution into 25 μL control homogenate. To prepare control and experimental brain homogenates, brains are thawed, weighed and a volume of diluent added (water) in the ratio of 2 mL per gram of brain. Homogenisation of brains is performed by bead-beater homogenisation using Precellys Evolution and CK14 7 mL small ceramic bead homogenisation tubes. Aliquots of 25 μL experimental sample are extracted alongside the calibration lines using protein precipitation (agitation for at least 5 min at RT with 400 μL of MeCN containing 25 ng/mL tolbutamide as an internal standard). Protein precipitates are separated from the extracted test compound by centrifugation at 4000 rpm for 5 min, 4° C. […] Samples are analysed by UPLC-MS/MS on either an API6500 QTrap or Waters TQS mass spectrometer using previously optimised analytical MRM (multiple reaction monitoring) methods, specific to the test compound. The concentration of test compound in isolated samples is determined following analysis of the samples against the two replicates of the calibration line, injected before and after the sample set with an appropriate regression and weighting used. Only samples within 20% of the expected test concentration are included in the calibration line and any samples that fall outside of the limits of the calibration line will be deemed to be less than or above the limit of quantification (LLoQ/ALoQ). Total brain to plasma (B:P) ratios were calculated by dividing the concentration in the brain by the concentration in plasma for each timepoint. The mean brain to plasma ratio is calculated by averaging these brain to plasma ratios across certain timepoints. […]

hERG channel = target: T1, hERG channel (Homo sapiens, UniProt Q12809); assay: hERG assay (QPatch automated patch clamp, CHO cells); format: cell-based; conditions: CHO cells expressing hERG, whole-cell patch clamp, 0.003 μM to 10 μM
T1 construct: expressed in transfected cells
From the text: The human ether-a-go-go related gene (hERG) potassium channel (Kv11.1) contributes to human cardiac action potential repolarisation. Inhibition of hERG channels can prolong the human cardiac action potential, resulting in QTc prolongation and potentially lethal arrhythmias (e.g. Torsade de Pointes).
Test samples were screened against the hERG channel on a QPatch 48 gigaseal automated patch clamp platform, using a Chinese Hamster Ovary (CHO) cell line stably expressing the human ether-á-go-go related gene, which encodes the hERG channel. All recordings were made in the conventional whole-cell configuration and performed at RT ([…]) using standard single hole chips (Rchip 1.5-4M0). Series resistance (4-15Mc) was compensated by >80%. Currents were elicited from a holding potential of −90 mV using the industry standard “^+40/−40” voltage protocol, which was applied at a stimulus frequency of 0.1 Hz. On achieving the whole-cell configuration, vehicle (0.1% DMSO v/v in external recording solution) was applied to each cell in two bolus additions with a 2 min recording period between each addition. Following the vehicle period, eight increasing concentrations of test sample were applied from 0.003 μM to 10 μM as a single bolus addition per test concentration, and the effects on hERG tail current amplitude measured during the 2 min recording period. Each eight-point concentration-response curve was constructed using cumulative single sample additions of each concentration to the same cell. The positive control used in this study was verapamil hydrochloride (Tocris, Cat #0654, Batch #5A/61673) and prepared to a stock concentration of 10 mM in 100% DMSO and kept as frozen aliquots.
Data analysis: All cells passing the QC parameters (i.e. >200 pA outward current, membrane resistance and rundown) are selected as ‘passed QC’ using the QPatch software, which then calculates the mean peak current for the last three sweeps at the end of each concentration application period from the cursor positions defined. Percent inhibition is calculated for each test concentration application period as the reduction in mean cursor value (peak current or charge) relative to the cursor value measured at the end of the control (i.e. vehicle) period. The percent inhibition values from each cell are used to construct concentration-response curves employing a four parametric logistic fit with 0 and 100% inhibition levels fixed at very low and very high concentrations, respectively, and a free Hill slope factor. The IC50 (50% inhibitory concentration) and Hill coefficient are then determined, but only data from cells with Hill slopes within 0.5>nH<2.0 are included. The IC50 data reported below represents the mean (and S.D.) of at least three separate cells (N≥3). […] Compounds of the invention show reduced hERG inhibitory activity compared to the reference examples.

[2] = Kinetic aqueous solubility assay; format: physicochemical; conditions: aqueous buffer, kinetic from dmso stock, 0.05M potassium phosphate buffer pH 7.4, 250 μM spike, RT
Protocol: Using a 10 mM stock solution of test compound in 100% DMSO, test compounds were spiked into 0.05M potassium phosphate buffer (pH 7.4) at a final concentration of 250 μM. Samples in buffer (n=2 aqueous samples, in 96-well plates) were allowed to equilibrate at RT on an orbital shaker for 30 min (300 rpm) to induce precipitation of test compounds. The appearance of each sample was determined by visual examination and noted (clear, cloudy, precipitate observed etc.). […] The concentration of compound in phosphate buffer filtrate was determined by comparing the UV absorbance peak area of each replicate against that of the calibration standards. […] Compounds of the invention have much improved solubility compared to the reference examples.

[3] = Rat PK profile (bioavailability, clearance, half-life); format: in vivo; conditions: male, Sprague Dawley, plasma, i.v. dose 1 mg/kg; for clearance / half-life: iv; for half-life: read-out: T½ (converted); for bioavailability: po, p.o. dose 3 mg/kg
Protocol: Male Sprague Dawley Rats 300-350 g (Charles River, UK) were group housed, n=3, under a 12 h light/dark cycle with food and water available ad libitum. At 17:00 on the day prior to dosing all food was removed. On the day of dosing animals were weighed, tail marked and dosed via oral gavage with compound at 3 mg/kg in a volume of 5 mL/kg. Animals were culled at 30 min, 1 h and 4 h post dose via intra-peritoneal administration of pentobarbital. Post mortem blood was withdrawn via cardiac puncture, and briefly stored in K2 EDTA blood tubes on ice before being spun at 14,000 g for 4 min at 4° C. Plasma was withdrawn into a 96 well plate, placed on dry ice and stored at −80° C. Brains were quickly dissected and placed on dry ice before storage at −80° C. Bioanalysis of plasma and brain samples is performed as detailed below. Methods were prepared with guidance from industry standard documents.^i,ii
A 10 mM DMSO stock is used to prepare spiking solutions of test compound in the range of 10-100,000 ng/mL in diluent (MeCN:water, 1;1). Calibration lines are prepared in control male Sprague-Dawley Rat plasma at known concentrations in the range of 1-10000 ng/mL by spiking 2.5 μL of calibration spiking solution into 25 μL control plasma. Experimental samples are thawed to RT and 25 μL aliquots are extracted alongside the calibration lines using protein precipitation (agitation for at least 5 min at RT with 400 μL of MeCN containing 25 ng/mL tolbutamide as an internal standard). Protein precipitates are separated from the extracted test compound by centrifugation at 4000 rpm for 5 min, 4° C. The resulting supernatants are diluted in a ratio of 1:2 with a relevant diluent (e.g. 0.1% formic acid in water or 1:1 MeOH:water). Samples are analysed by UPLC-MS/MS on either an API6500 QTrap or Waters 30 TQS mass spectrometer using previously optimised analytical MRM (multiple reaction monitoring) methods, specific to the test compound. The concentration of test compound in isolated samples is determined following analysis of the samples against the two replicates of the calibration line, injected before and after the sample set with an appropriate regression and weighting used. Only samples within 20% of the expected test concentration are included in the calibration line and any samples that fall outside of the limits of the calibration line will be deemed to be less than or above the limit of quantification (LLoQ/ALoQ).
Pharmacokinetic parameters such as bioavailability (% F), clearance (CL), half-life (T½) and volume of distribution are calculated by non-compartmental analysis using Phoenix Winnonlin 64 software (build 8.0). The bioavailability was calculated from p.o. dosed rats, whereas the clearance and half-life were calculated from i.v. dosed rats. Briefly, in vivo plasma concentrations, timepoints and dose values are imported into the software in a compatible format. Plasma concentration for each animal is plotted against time, and the elimination phase identified and selected. The area under the curve for each plot is calculated using a linear trapezoidal linear interpolation from which pharmacokinetic parameters can subsequently be determined. […] Compounds of the invention have much improved clearance (CL) and half-life (T½) compared to the reference examples.

T1 sequence (Q12809 whole entry): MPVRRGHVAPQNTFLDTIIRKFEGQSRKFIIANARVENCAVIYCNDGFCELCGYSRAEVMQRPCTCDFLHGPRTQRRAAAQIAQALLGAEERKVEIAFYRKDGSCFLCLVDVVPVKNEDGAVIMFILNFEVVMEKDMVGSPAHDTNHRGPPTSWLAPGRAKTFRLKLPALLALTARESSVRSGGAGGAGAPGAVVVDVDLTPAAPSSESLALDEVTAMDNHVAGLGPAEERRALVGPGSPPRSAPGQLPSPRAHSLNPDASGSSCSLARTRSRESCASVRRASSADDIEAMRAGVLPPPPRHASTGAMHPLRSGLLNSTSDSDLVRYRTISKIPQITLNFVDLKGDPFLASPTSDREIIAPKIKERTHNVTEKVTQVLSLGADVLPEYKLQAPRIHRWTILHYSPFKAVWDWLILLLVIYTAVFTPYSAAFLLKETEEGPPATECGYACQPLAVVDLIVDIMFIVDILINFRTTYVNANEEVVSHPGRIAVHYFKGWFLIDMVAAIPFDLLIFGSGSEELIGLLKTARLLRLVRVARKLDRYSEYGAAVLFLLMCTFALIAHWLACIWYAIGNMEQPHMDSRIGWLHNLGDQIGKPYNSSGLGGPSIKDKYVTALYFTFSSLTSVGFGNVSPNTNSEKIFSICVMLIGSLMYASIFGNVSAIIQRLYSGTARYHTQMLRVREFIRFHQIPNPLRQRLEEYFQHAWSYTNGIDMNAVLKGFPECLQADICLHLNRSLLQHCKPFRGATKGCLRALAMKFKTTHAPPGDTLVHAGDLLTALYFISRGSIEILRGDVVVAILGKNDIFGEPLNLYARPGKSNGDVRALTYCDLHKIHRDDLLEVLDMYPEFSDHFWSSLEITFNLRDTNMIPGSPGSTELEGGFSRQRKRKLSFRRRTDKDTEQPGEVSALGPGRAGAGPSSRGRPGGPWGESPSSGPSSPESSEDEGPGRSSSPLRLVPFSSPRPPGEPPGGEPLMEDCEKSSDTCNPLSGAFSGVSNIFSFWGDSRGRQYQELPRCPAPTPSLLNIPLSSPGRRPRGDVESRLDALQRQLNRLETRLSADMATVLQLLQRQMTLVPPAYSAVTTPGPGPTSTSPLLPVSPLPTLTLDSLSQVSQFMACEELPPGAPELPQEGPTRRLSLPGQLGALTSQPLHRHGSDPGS

Compound | Kp [1] | solubility at 30 min [2] [µM] | clearance [3] [mL/min/kg] | half-life [3] [min] | bioavailability [3] [%] | IC50 (hERG channel) [µM] | other results
COc1cccc(-n2cc(C(=O)Nc3ccc(OC(F)(F)Cl)cc3)ccc2=O)c1 [Example 35, N-[4-(Chlorodifluoromethoxy)phenyl]-1-(3-methoxyphenyl)-6-oxo-1,6-dihydropyridine-3-carboxamide] | – | – | – | – | – | > 10 | Kp at 1 h ([1]; timepoint 1 h): 1.11
Cn1cc(C(=O)Nc2ccc(OC(F)(F)Cl)cc2)cc(-c2cccnc2)c1=O [Example 81, N-[4-[Chloro(difluoro)methoxy]phenyl]-1-methyl-6-oxo-5-(3-pyridyl)pyridine-3-carboxamide] | – | – | 3 | 372 | 102 | – | –
Cn1cc(C(=O)Nc2ccc(OC(F)(F)Cl)cc2)cc(-c2ccccc2)c1=O [Example 88, N-[4-[Chloro(difluoro)methoxy]phenyl]-1-methyl-6-oxo-5-phenyl-pyridine-3-carboxamide] | 0.69 | – | – | – | – | – | –
O=C(Nc1ccc(OC(F)(F)Cl)cc1)c1cnc(N2CC[C@@H](O)C2)c(-c2ccn[nH]2)c1 [Ref. ex. 1, N-[4-[Chloro(difluoro)methoxy]phenyl]-6-[(3R)-3-hydroxypyrrolidin-1-yl]-5-(1H-pyrazol-5-yl)pyridine-3-carboxamide, reference compound] | – | – | 22 | 126 | 4 | – | –
O=C(Nc1ccc(OC(F)(F)F)cc1)c1cncc(-c2cccnc2)c1 [Ref. ex. 4, 5-(3-Pyridyl)-N-[4-(trifluoromethoxy)phenyl]pyridine-3-carboxamide, reference compound] | – | < 5 | 12 | 72 | 113 | 4.7 | –

Now from value to compound, other results behind:

Kp [1] | solubility at 30 min [2] [µM] | clearance [3] [mL/min/kg] | half-life [3] [min] | bioavailability [3] [%] | Compound | IC50 (hERG channel) [µM] | other results
0.79 | – | – | – | – | COc1ccc(-n2cc(C(=O)Nc3ccc(OC(F)(F)Cl)cc3)ccc2=O)cn1 [Example 13, N-[4-[Chloro(difluoro)methoxy]phenyl]-1-(6-methoxy-3-pyridyl)-6-oxo-pyridine-3-carboxamide] | – | –
0.68 | – | – | – | – | O=C(Nc1ccc(OC(F)(F)Cl)cc1)c1ccc(=O)n(-c2ccc(F)c(F)c2)c1 [Example 24, N-[4-(Chlorodifluoromethoxy)phenyl]-1-(3,4-difluorophenyl)-6-oxo-1,6-dihydropyridine-3-carboxamide] | > 10 | –
0.98 | 120 (≈ 49.1 µg/mL) | – | – | – | O=C(Nc1ccc(OC(F)(F)Cl)cc1)c1ccc(=O)n(-c2ccc(F)cc2)c1 [Example 42, N-[4-(Chlorodifluoromethoxy)phenyl]-1-(4-fluorophenyl)-6-oxo-1,6-dihydropyridine-3-carboxamide] | – | –
1.54 | – | – | – | – | O=C(Nc1ccc(OC(F)(F)Cl)cc1)c1ccc(=O)n(-c2cccc(F)c2)c1 [Example 47, N-[4-(Chlorodifluoromethoxy)phenyl]-1-(3-fluorophenyl)-6-oxo-1,6-dihydropyridine-3-carboxamide] | > 10 | –
0.31 | 170 (≈ 69 µg/mL) | – | – | – | Cc1ccc(-n2cc(C(=O)Nc3ccc(OC(F)(F)Cl)cc3)ccc2=O)cn1 [Example 65, N-[4-(Chlorodifluoromethoxy)phenyl]-6′-methyl-2-oxo-2H-[1,3′-bipyridine]-5-carboxamide] | – | –
